Measured values reported in patent publication US20250304571A1, “BIOLOGICALLY ACTIVE COMPOUNDS AND METHODS THEREOF” (Suzhou Keen Therapeutics Co., Ltd., priority 2022, published 2025).
Where two headings read alike, the source gives them in different places.

System: 786-O (renal cell carcinoma) cells
Experiment: Cell viability (CellTiter Glo) assay, inhibition of 786-O cell proliferation
Format: cell-based
Conditions: Homo sapiens, read-out: IC50, inhibition of 786-O cell proliferation
[1] = 786-0, 786-O cells, 72 hours, CellTiter Glo

Compound	IC50 [1]	IC50 (786-0, 72 h)
CNc1nc(COC(=N)N2CCC[C@@H]2C(F)(F)F)nc2c1C(C)(C)C(=O)N2c1cnc2c(C(C)C)cnn2c1 [Compound E67]	< 100 nM	–
CNc1nc(COC(=N)N2CCC[C@@H]2C(F)(F)F)nc2c1C(C)(C)C(=O)N2c1ccc2c(c1)CCO2 [Compound E68]	< 100 nM	–
CNc1nc(COC(=N)N2CCC[C@@H]2C(F)(F)F)nc2c1C(C)(C)C(=O)N2c1ccc(N2C[C@@H](C)O[C@@H](C)C2)nc1 [Compound E69]	< 100 nM	–
CC1(C)C(=O)N(c2ccc(N3CCC4(CC3)CC4)nc2)c2nc(COC(=N)N3CCC[C@@H]3C(F)(F)F)nc(N)c21 [Compound E70]	< 100 nM	–
N=C(OCc1nc(NC2CC2)c2c(n1)N(c1ccc(N3CCOCC3)cc1)C(=O)C21CCCCC1)N1CCC[C@@H]1C(F)(F)F [Compound E71]	< 100 nM	–
N=C(OCc1ncc2c(n1)N(c1ccc(N3CCOCC3)cc1)C(=O)C21CCCC1)N1CCC[C@@H]1C(F)(F)F [Compound E72]	< 100 nM	–
N=C(OCc1nc(NC2CC2)c2c(n1)N(c1ccc(N3CCOCC3)c(F)c1)C(=O)C21CCCCC1)N1CCC[C@@H]1C(F)(F)F [Compound E73]	< 100 nM	–
CC1(C)C(=O)N(c2ccc(N3CCOCC3)cc2)c2nc(COC(=N)N3CCC[C@@H]3C(F)(F)F)nc(N3CC(F)(F)C3)c21 [Compound E74]	100 to 500 nM	–
CCN(CC)c1ncc(N2C(=O)C3(CCCC3)c3c(N)nc(COC(=N)N4CCC[C@@H]4C(F)(F)F)nc32)cn1 [Compound E75]	< 100 nM	–
CCN(CC)c1ncc(N2C(=O)C3(CCCC3)c3c(NC(C)C)nc(COC(=N)N4CCC[C@@H]4C(F)(F)F)nc32)cn1 [Compound E76]	100 to 500 nM	–
COc1cc(N2CCOCC2)ccc1N1CC(C)(C)c2c(N)nc(COC(=N)N3CCC[C@@H]3C(F)(F)F)nc21 [Compound E77]	< 100 nM	–
N=C(OCc1nc(N)c2c(n1)N(c1cnc(N3CCOCC3)nc1)C(=O)C21CCCC1)N1CCC[C@@H]1C(F)(F)F [Compound E78]	< 100 nM	–
CC(C)Nc1nc(COC(=N)N2CCC[C@@H]2C(F)(F)F)nc2c1C1(CCCC1)C(=O)N2c1cnc(N2CCOCC2)nc1 [Compound E79]	100 to 500 nM	–
CNc1nc(COC(=N)N2CCC[C@@H]2C(F)(F)F)nc2c1C1(CCCC1)C(=O)N2c1cnc(N2CCOCC2)nc1 [Compound E80]	< 100 nM	–
CC(C)Nc1nc(COC(=N)N2CCC[C@@H]2C(F)(F)F)nc2c1C1(CCCC1)C(=O)N2c1cnc(N2CCC(F)(F)C2)nc1 [Compound E81]	< 100 nM	–
N=C(OCc1nc(N)c2c(n1)N(c1cnc(N3CCC(F)(F)C3)nc1)C(=O)C21CCCC1)N1CCC[C@@H]1C(F)(F)F [Compound E82]	< 100 nM	–
CNc1nc(COC(=N)N2CCC[C@@H]2C(F)(F)F)nc2c1C1(CCCC1)C(=O)N2c1cnc(N2CCC(F)(F)C2)nc1 [Compound E83]	< 100 nM	–
N=C(OCc1nc(N)c2c(n1)N(c1cnc(N3CCC(F)(F)CC3)nc1)C(=O)C21CCCC1)N1CCC[C@@H]1C(F)(F)F [Compound E84]	< 100 nM	–
N=C(OCc1nc(N)c2c(n1)N(c1cnc(N3CC(F)(F)C3)nc1)C(=O)C21CCCC1)N1CCC[C@@H]1C(F)(F)F [Compound E85]	< 100 nM	–
CNc1nc(COC(=N)N2CCC[C@@H]2C(F)(F)F)nc2c1C1(CCCC1)C(=O)N2c1cnc(N2CC(F)(F)C2)nc1 [Compound E86]	< 100 nM	–

Compound	IC50 [1]	IC50 (786-0, 72 h)
CC1(C)C(=O)N(c2cnc(C3CCOCC3)nc2)c2nc(COC(=N)N3CCC[C@@H]3C(F)(F)F)nc(NC3CCC3)c21 [Compound E89]	500 to 5000 nM	–
N=C(OCc1nc(N)c2c(n1)N(c1cnc(C(F)(F)F)nc1)C(=O)C21CCCC1)N1CCC[C@@H]1C(F)(F)F [Compound E90]	100 to 500 nM	–
N=C(OCc1nc(NC2CCC2)c2c(n1)N(c1ccc(N3CCOCC3)cc1)C(=O)C21CCCC1)N1CCC[C@@H]1C(F)(F)F [Compound E91]	< 100 nM	–
C[C@@H]1CN(c2ncc(N3C(=O)C4(CCCC4)c4c(NC5CCC5)nc(COC(=N)N5CCC[C@@H]5C(F)(F)F)nc43)cn2)C[C@H](C)O1 [Compound E92, [4′-(cyclobutylamino)-7′-{2-[(2R,6S)-2,6-dimethylmorpholin-4-yl]pyrimidin-5-yl}-6′-oxo-6′,7′-dihydrospiro[cyclopentane-1,5′-pyrrolo[2,3-d]pyrimidin]-2′-yl]methyl (2R)-2-(trifluoromethyl)pyrrolidine-1-carboximidate]	100 to 500 nM	–
CNc1nc(COC(=N)N2CCC[C@@H]2C(F)(F)F)nc2c1C1(CCCC1)C(=O)N2c1cnc(C2=CCOCC2)nc1 [Compound E95]	< 100 nM	–
CNc1nc(COC(=N)N2CCC[C@@H]2C(F)(F)F)nc2c1C1(CCCC1)C(=O)N2c1cnc(N2CC3CC2CO3)nc1 (stereo partly drawn) [Compound E96, (7′-(2-(2-oxa-5-azabicyclo[2.2.1]heptan-5-yl)pyrimidin-5-yl)-4′-(methylamino)-6′-oxo-6′,7′-dihydrospiro[cyclopentane-1,5′-pyrrolo[2,3-d]pyrimidin]-2′-yl)methyl (2R)-2-(trifluoromethyl)pyrrolidine-1-carbimidate]	100 to 500 nM	–
N=C(OCc1nc(N)c2c(n1)N(c1cnc(N3CC4CC3CO4)nc1)C(=O)C21CCCC1)N1CCC[C@@H]1C(F)(F)F (some centres unmarked) [Compound E98]	500 to 5000 nM	–
CC1(C)CC(c2ncc(N3C(=O)C4(CCCC4)c4c(N)nc(COC(=N)N5CCOCC5C(F)(F)F)nc43)cn2)CC(C)(C)O1 (centres unmarked) [Compound E101]	500 to 5000 nM	–
CNc1nc(COC(=N)N2CCC[C@@H]2C(F)(F)F)nc2c1C1(CCCC1)C(=O)N2c1cnc(C2CC(C)(C)OC(C)(C)C2)nc1 [Compound E102]	100 to 500 nM	–
C[C@@H]1CN(c2ncc(N3C(=O)C4(CCCC4)c4c(N)nc(COC(=N)N5CCOC[C@H]5C(F)(F)F)nc43)cn2)C[C@H](C)O1 [Compound E104A]	100 to 500 nM	–
C[C@@H]1CN(c2ncc(N3C(=O)C4(CCCC4)c4c(N)nc(COC(=N)N5CCOC[C@@H]5C(F)(F)F)nc43)cn2)C[C@H](C)O1 [Compound E104B]	< 100 nM	–
C[C@@H]1CN(c2ncc(N3C(=O)C(C)(C)c4c(N)nc(COC(=N)N5CCC[C@@H]5C(F)(F)F)nc43)cn2)C[C@H](C)O1 [Compound E105]	< 100 nM	–
CNc1nc(COC(=N)N2CCC[C@@H]2C(F)(F)F)nc2c1C(C)(C)CN2c1ccc(N2CCOCC2)cc1OC [Compound E106]	< 100 nM	–
CNc1nc(COC(=N)N2CCC[C@H]2C(F)(F)F)nc2c1C(C)(C)CN2c1ccc(N2CCOCC2)cc1OC [Compound E107]	< 100 nM	–
CNc1nc(COC(=N)N2CCC[C@H]2C(F)(F)F)nc2c1C(C)(C)C(=O)N2c1ccc(N2CCOCC2)cc1 [Compound E108]	< 100 nM	–
CCN(CC(F)(F)F)C(=N)OCc1nc(NC)c2c(n1)N(c1ccc(N3CCOCC3)cc1)C(=O)C2(C)C [Compound E109]	< 100 nM	–
N=C(OCc1nc(NC2CC2)c2c(n1)N(c1cnc(N3CCOCC3)nc1)C(=O)C21CCCC1)N1CCC[C@@H]1C(F)(F)F [Compound E111]	< 100 nM	–
N=C(OCc1nc(NC2CC2)c2c(n1)N(c1cnc(N3CCC(F)(F)CC3)nc1)C(=O)C21CCCC1)N1CCC[C@@H]1C(F)(F)F [Compound E112]	< 100 nM	–
CNc1nc(COC(=N)N2CCCC2C(F)(F)F)nc2c1C(C)(C)C(=O)N2c1ccc(N2C[C@@H](C)O[C@@H](C)C2)nc1 (some centres unmarked) [Compound E113]	< 100 nM	–
CNc1nc(COC(=N)N2CCC[C@@H]2C(F)(F)F)nc2c1C(C)(C)C(=O)N2c1ccc(N2CCOCC2)cc1 [Compound E114]	< 100 nM	–

Compound	IC50 [1]	IC50 (786-0, 72 h)
CNc1nc(COC(=N)N2CC(F)(F)C[C@H]2C)nc2c1C(C)(C)C(=O)N2c1ccc(N2C[C@@H](C)O[C@@H](C)C2)nc1 [Compound E115]	100 to 500 nM	–
CNc1nc(COC(=N)N2CC(F)(F)C[C@@H]2C)nc2c1C(C)(C)C(=O)N2c1ccc(N2C[C@@H](C)O[C@@H](C)C2)nc1 [Compound E116]	100 to 500 nM	–
CC1(C)C(=O)N(c2ccc(N3CCOCC3)cc2)c2nc(COC(=N)N3CCC[C@@H]3C(F)(F)F)nc(N)c21 [Compound E117]	< 100 nM	–
N=C(OCc1ncc2c(n1)N(c1cnc(N3CCC(F)(F)CC3)nc1)C(=O)C21CCCC1)N1CCC[C@@H]1C(F)(F)F [Compound E118]	< 100 nM	–
N=C(OCc1ncc(C2CCCO2)c(Nc2ccc(Oc3ccccc3)cc2)n1)N1CCCCC1C(F)(F)F (centres unmarked) [Compound E119]	< 100 nM	–
CC(C)N(CC(F)(F)F)C(=N)OCc1ncc(C2=CCOCC2)c(Nc2ccc(N3CCOCC3)nc2)n1 [Compound E120]	500 to 5000 nM	–
CC1(C)CN(c2ccc(Oc3ccccc3)cc2)c2nc(COC(=N)N3CCCC34CCOCC4)ncc21 [Compound E121]	500 to 5000 nM	–
N=C(OCc1nc(N)nc(Nc2ccc(Oc3ccccc3)cc2)n1)N1CCCC12CCOCC2 [Compound E122]	500 to 5000 nM	–
CC(C)N(CC(F)(F)F)C(=N)OCc1ncc(C2CCOCC2)c(Nc2ccc(N3CCOCC3)nc2)n1 [Compound E124]	> 5000 nM	–
CC(C)N(CC(F)(F)F)C(=N)OCc1ncc2c(n1)N(c1ccc(Oc3ccccc3)cc1)CCO2 [Compound E125]	–	500 to 5000 nM
CC(C)N(CC(F)(F)F)C(=N)OCc1ncc2c(n1)N(c1ccc(OC3CCCCC3)nc1)CCO2 [Compound E126]	–	500 to 5000 nM
CC(C)N(CC(F)(F)F)C(=N)OCc1ncc2c(n1)N(c1ccc(OC3CCCCC3)nc1)CC2(C)C [Compound E127]	100 to 500 nM	–
CCC(CC)Oc1ccc(N2CC(C)(C)c3cnc(COC(=N)N(CC(F)(F)F)C(C)C)nc32)nc1 [Compound E128]	100 to 500 nM	–
CC(C)N(CC(F)(F)F)C(=N)OCc1ncc2c(n1)N(c1ccc(N3CCOCC3)nc1)CC2(C)C [Compound E129]	100 to 500 nM	–
CC(C)Oc1cnc(COC(=N)N(CC(F)(F)F)C(C)C)nc1Nc1ccc(Oc2ccccc2)cc1 [Compound E131]	100 to 500 nM	–
CC(C)N(CC(F)(F)F)C(=N)OCc1ncc2c(n1)N(c1ccc(OC3CCCC3)nc1)C(=O)C21CC1 [Compound E132]	100 to 500 nM	–
CC(C)Oc1ccc(N2C(=O)C3(CC3)c3cnc(COC(=N)N(CC(F)(F)F)C(C)C)nc32)cn1 [Compound E133]	500 to 5000 nM	–
CC(C)N(CC(F)(F)F)C(=N)OCc1ncc2c(n1)N(C1CCC(Oc3ccccn3)CC1)C(=O)C21CC1 (centres unmarked) [Compound E134]	500 to 5000 nM	–
CC(C)N(CC(F)(F)F)C(=N)OCc1ncc2c(n1)N(c1ccc(OC3CCCCC3)cn1)CC2(C)C [Compound E135]	500 to 5000 nM	–
